According to patent publication US20090298866A1, “Indole Compounds” (priority 2006, published 2009):
Where a name gives a salt, the structure may show the parent alone.

Molecular target: T1, human EP1 receptor (Homo sapiens, UniProt P34995)
T1 construct: expressed in transfected cells; host or cells: CHO-K1
T1 sequence (P34995 1-402): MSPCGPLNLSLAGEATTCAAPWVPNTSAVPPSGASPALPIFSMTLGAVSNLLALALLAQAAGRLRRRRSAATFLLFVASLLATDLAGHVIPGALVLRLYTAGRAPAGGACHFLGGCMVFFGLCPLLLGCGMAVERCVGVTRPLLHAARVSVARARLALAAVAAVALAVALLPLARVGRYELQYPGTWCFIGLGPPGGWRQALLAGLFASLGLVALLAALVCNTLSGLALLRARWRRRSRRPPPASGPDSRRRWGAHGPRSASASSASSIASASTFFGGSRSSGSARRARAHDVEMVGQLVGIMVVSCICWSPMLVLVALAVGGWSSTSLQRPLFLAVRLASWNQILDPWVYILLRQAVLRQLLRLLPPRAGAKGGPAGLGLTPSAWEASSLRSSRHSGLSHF
Experiment: human EP1 calcium mobilisation assay
Type: cell-based
Details: human EP1, CHO-K1 cells, PGE2-induced calcium mobilisation; averages of a number of experiments; read-out: functional pKi (converted)
Experimental: Briefly, the antagonist properties of compounds are assessed by their ability to inhibit the mobilisation of intracellular calcium ([Ca^2+]i) in response to activation of EP1 or EP3 receptors by the natural agonist hormone prostaglandin E2 (PGE2). Increasing concentrations of antagonist reduce the amount of calcium that a given concentration of PGE2 can mobilise. The net effect is to displace the PGE2 concentration-effect curve to higher concentrations of PGE2. The amount of calcium produced is assessed using a calcium-sensitive fluorescent dye such as Fluo-4, AM and a suitable instrument such as a Fluorimetric Imaging Plate Reader (FLIPR). Increasing amounts of [Ca^2+]i produced by receptor activation increase the amount of fluorescence produced by the dye and give rise to an increasing signal. The signal may be detected using the FLIPR instrument and the data generated may be analysed with suitable curve-fitting software.
The human EP1 or EP3 calcium mobilisation assay (hereafter referred to as ‘the calcium assay’) utilises Chinese hamster ovary-K1 (CHO-K1) cells into which a stable (pCIN; BioTechniques 20 (1996): 102-110) vector containing either EP1 or EP3 cDNA has previously been transfected. Cells are cultured in suitable flasks containing culture medium such as DMEM:F-12 supplemented with 10% v/v foetal calf serum, 2 mM L-glutamine, 0.25 mg/ml geneticin, 100 μM flurbiprofen and 10 μg/ml puromycin.
For assay, cells are harvested using a proprietary reagent that dislodges cells such as Versene. Cells are re-suspended in a suitable quantity of fresh culture media for introduction into a 384-well plate. Following incubation for 24 hours at 37° C. the culture media is replaced with a medium containing Fluo-4 and the detergent pluronic acid, and a further incubation takes place. Concentrations of compounds are then added to the plate in order to construct concentration-effect curves. This may be performed on the FLIPR in order to assess the agonist properties of the compounds. Concentrations of PGE2 are then added to the plate in order to assess the antagonist properties of the compounds.
The data so generated may be analysed by means of a computerised curve-fitting routine. The concentration of compound that elicits a half-maximal inhibition of the calcium mobilisation induced by PGE2 (pIC50) may then be estimated.

Ki, ≤ 100 nM:
CC(C)Cc1cn(-c2nc(C(N)=O)cs2)c2cc(Br)ccc12 [Example 32, 2-[6-Bromo-3-isobutyl-1H-indol-1-yl]-1,3-thiazole-4-carboxamide]
CC(C)Cc1cn(-c2nc(C(=O)Nc3ccccn3)cs2)c2cc(Cl)ccc12 [Example 27, 2-[6-Chloro-3-isobutyl-1H-indol-1-yl]-N-2-pyridinyl-1,3-thiazole-4-carboxamide]
CC(C)Cc1cn(-c2nc(-c3nc(-c4ccccc4)c[nH]3)cs2)c2cc(Cl)ccc12 [Example 52, 6-Chloro-3-isobutyl-1-[4-(4-phenyl-1H-imidazol-2-yl)-1,3-thiazol-2-yl]-1H-indole]
CC(C)Cc1cn(-c2nc(NC(=O)c3c(F)cccc3F)cs2)c2cc(Cl)ccc12 [Example 5, N-[2-(6-Chloro-3-isobutyl-1H-indol-1-yl)-1,3-thiazol-4-yl]-2,6-difluorobenzamide]
CC(C)Cc1cn(-c2nc(C(=O)Nc3ccc(F)cc3)cs2)c2cc(Cl)ccc12 [Example 29, 2-[6-Chloro-3-isobutyl-1H-indol-1-yl]-N-(4-fluorophenyl)-1,3-thiazole-4-carboxamide]
CC(C)Cc1cn(Cc2nc(C(N)=O)cs2)c2cc(Cl)ccc12 [Example 34, 2-{[6-Chloro-3-isobutyl-1H-indol-1-yl]methyl}-1,3-thiazole-4-carboxamide]
CC(C)Cc1cn(-c2nc(C(=O)Nc3cccc(CO)c3)cs2)c2cc(Cl)ccc12 [Example 24, 2-[6-Chloro-3-isobutyl-1H-indol-1-yl]-N-[3-indol-1-yl]N-[3-(hydroxymethyl)phenyl]-1,3-thiazole-4-carboxamide]

Molecular target: T1, human EP1 receptor
Experiment: Binding assay for the human prostanoid EP1 receptor (competition with [3H]-PGE2)
Details: binding to human EP1 receptor, CHO-K1 membranes, [3H]-PGE2 3 nM; averages of a number of experiments
Experimental: Competition assay using [^3H]-PGE2.
Compound potencies are determined using a radioligand binding assay. In this assay compound potencies are determined from their ability to compete with tritiated prostaglandin E2 ([^3H]-PGE2) for binding to the human EP1 receptor. This assay utilises Chinese hamster ovary-K1 (CHO-K1) cells into which a stable vector containing the EP1 cDNA has previously been transfected. Cells are cultured in suitable flasks containing culture medium such as DMEM:F-12 supplemented with 10% v/v foetal calf serum, 2 mM L-glutamine, 0.25 mg/ml geneticin, 10 μg/ml puromycin and 10 μM indomethacin.
Cells are detached from the culture flasks by incubation in calcium and magnesium free phosphate buffered saline containing 1 mM disodium ethylenediaminetetraacetic acid (Na2EDTA) and 10 μM indomethacin for 5 min. The cells are isolated by centrifugation at 250×g for 5 mins and suspended in an ice cold buffer such as 50 mM Tris, 1 mM Na2EDTA, 140 mM NaCl, 10 μM indomethacin (pH 7.4). The cells are homogenised using a Polytron tissue disrupter (2×10 s burst at full setting), centrifuged at 48,000×g for 20 mins and the pellet containing the membrane fraction is washed (optional) three times by suspension and centrifugation at 48,000×g for 20 mins. The final membrane pellet is suspended in an assay buffer such as 10 mM 2-[N-morpholino]ethanesulphonic acid, 1 mM Na2EDTA, 10 mM MgCl2 (pH 6). Aliquots are frozen at −80° C. until required.
For the binding assay the cell membranes, competing compounds and [^3H]-PGE2 (3 nM final assay concentration) are incubated in a final volume of 100 μl for 30 min at 30° C. All reagents are prepared in assay buffer. Reactions are terminated by rapid vacuum filtration over GF/B filters using a Brandell cell harvester. The filters are washed with ice cold assay buffer, dried and the radioactivity retained on the filters is measured by liquid scintillation counting in Packard TopCount scintillation counter.
The data are analysed using non linear curve fitting techniques to determine the concentration of compound producing 50% inhibition of specific binding (IC50).

IC50, ≤ 100 nM:
CC(C)Cc1cn(-c2nc(C(=O)Nc3ccc(CO)cc3)cs2)c2cc(Cl)ccc12 [Example 21, 2-[6-Chloro-3-isobutyl-1H-indol-1-yl]-N-[4-(hydroxymethyl)phenyl]-1,3-thiazole-4-carboxamide]
CC(C)c1cn(-c2nc(C(=O)Nc3ccccc3N)cs2)c2cc(Cl)ccc12 [Example 13, N-(2-Aminophenyl)-2-[6-chloro-3-isopropyl-1H-indol-1-yl]-1,3-thiazole-4-carboxamide]
CC(C)Cc1cn(-c2nc(-c3nc4ncccc4[nH]3)cs2)c2cc(Cl)ccc12 [Example 42, 2-{2-[6-Chloro-3-isobutyl-1H-indol-1-yl]-1,3-thiazol-4-yl}-1H-imidazo[4,5-b]pyridine hydrochloride]
CC(C)Cc1cn(-c2nc(-c3ncc[nH]3)cs2)c2cc(Cl)ccc12 [Example 47, 6-Chloro-1-[4-(1H-imidazol-2-yl)-1,3-thiazol-2-yl]-3-isobutyl-1H-indole]
CC(C)Cc1nn(-c2nc(-c3nc4ccccc4[nH]3)cs2)c2cc(Cl)ccc12 [Example 39, 1-[4-(1H-Benzimidazol-2-yl)-1,3-thiazol-2-yl]-6-chloro-3-isobutyl-1H-indazole hydrochloride]
CC(C)Cc1cn(-c2nc(NC(=O)C(C)(C)C)cs2)c2cc(Cl)ccc12 [Example 4, N-{2-[6-Chloro-3-isobutyl-1H-indoi-1-yl]-1,3-thiazol-4-yl}-2,2-dimethylpropanamide]
CC(C)(C)CCc1cn(-c2nc(-c3nc4ccccc4[nH]3)cs2)c2cc(Cl)ccc12 [Example 37, 2-{2-[6-Chloro-3-(3,3-dimethylbutyl)-1H-indol-1-yl]-1,3-thiazol-4-yl}-1H-benzimidazole hydrochloride]
CC(C)Cc1cn(-c2nc(NC(=O)C3CCCC3)cs2)c2cc(Cl)ccc12 [Example 3, N-{2-[6-Chloro-3-isobutyl-1H-indol-1-yl]-1,3-thiazol-4-yl}cyclopentanecarboxamide]
